Source: ChEMBL document CHEMBL1138594, “Identification of an N-oxide pyridine GW4064 analog as a potent FXR agonist” (Bioorg Med Chem Lett, 2009)

Legend:
Bile acid receptor [1] = target: T1, Bile acid receptor (Homo sapiens, UniProt Q96RI1)
T1 sequence (Q96RI1 whole entry): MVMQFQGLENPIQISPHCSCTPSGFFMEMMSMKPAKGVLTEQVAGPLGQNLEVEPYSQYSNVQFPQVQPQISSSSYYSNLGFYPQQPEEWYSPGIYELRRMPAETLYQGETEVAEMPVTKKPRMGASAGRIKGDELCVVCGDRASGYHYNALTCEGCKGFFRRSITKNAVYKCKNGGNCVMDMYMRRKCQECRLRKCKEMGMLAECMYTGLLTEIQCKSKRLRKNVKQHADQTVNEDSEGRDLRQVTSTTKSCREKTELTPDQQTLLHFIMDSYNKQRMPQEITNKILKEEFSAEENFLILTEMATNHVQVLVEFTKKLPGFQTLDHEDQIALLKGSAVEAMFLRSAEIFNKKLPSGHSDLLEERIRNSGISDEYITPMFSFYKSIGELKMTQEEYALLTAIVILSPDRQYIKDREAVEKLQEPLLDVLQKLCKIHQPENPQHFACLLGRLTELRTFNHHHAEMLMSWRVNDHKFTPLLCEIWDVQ

Bile acid receptor [2] = target: T2, Bile acid receptor (Mus musculus, UniProt Q60641); test: Agonist activity at mouse chimeric FXR assessed as receptor transactivation by luciferase transcriptional reporter gene assay; format: functional
T2 sequence (Q60641 whole entry): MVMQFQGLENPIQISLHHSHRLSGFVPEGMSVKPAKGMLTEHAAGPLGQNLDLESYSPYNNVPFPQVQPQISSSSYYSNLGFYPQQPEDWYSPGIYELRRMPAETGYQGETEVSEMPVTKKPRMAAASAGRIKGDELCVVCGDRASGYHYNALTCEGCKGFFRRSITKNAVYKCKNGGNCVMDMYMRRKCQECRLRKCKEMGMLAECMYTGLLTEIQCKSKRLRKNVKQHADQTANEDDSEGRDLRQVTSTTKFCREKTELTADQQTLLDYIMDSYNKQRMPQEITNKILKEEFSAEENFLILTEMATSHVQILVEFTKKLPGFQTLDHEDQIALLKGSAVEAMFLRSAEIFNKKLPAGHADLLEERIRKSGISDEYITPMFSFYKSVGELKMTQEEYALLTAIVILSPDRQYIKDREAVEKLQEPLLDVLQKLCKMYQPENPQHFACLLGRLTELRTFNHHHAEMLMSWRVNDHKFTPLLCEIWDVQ

Bile acid receptor [3] = target: T1, Bile acid receptor; test: Displacement of radioligand from human FXR by scintillation proximity assay
[4] = target: T3, Bile acid receptor (Mus musculus) (UniProt Q60641); test: Agonist activity at mouse chimeric FXR assessed as receptor transactivation by luciferase transcriptional reporter gene assay relative to GW-4064; format: functional; parameters: concentration or dose not given beside the values
T3 sequence (whole entry): T2 sequence (Q60641 whole entry)

[5] = target: T4, Bile acid receptor (Homo sapiens) (UniProt Q96RI1); test: Agonist activity at chimeric FXR assessed as receptor transactivation by luciferase transcriptional reporter gene assay relative to GW-4064; format: functional; parameters: concentration or dose not given beside the values
T4 sequence (whole entry): T1 sequence (Q96RI1 whole entry)

[6] = Permeability by PAMPA method; format: ADME; conditions: read-out: permeability

Row | SMILES | EC50 (Bile acid receptor [1]) | EC50 (Bile acid receptor [2]) | IC50 (Bile acid receptor [3]) | Activity [4] | Activity [5] | Papp [6]
1 | Cc1cc(OCc2c(-c3ccn(C)c(=O)c3Cl)noc2C(C)C)ccc1-c1ccc2c(C(=O)O)cn(C)c2c1 | 7 µM | 6 µM | 1.72 µM | 17% | 12% | –
2 | Cc1cc(OCc2c(-c3c(Cl)c[n+]([O-])cc3Cl)noc2C(C)C)ccc1-c1ccc2c(C(=O)O)cn(C)c2c1 | 0.102 µM | 0.2 µM | 0.045 µM | 88.5% | 53.7% | 587 ×10⁻⁶ cm/s
3 | CC(C)c1onc(-c2c(Cl)cncc2Cl)c1COc1ccc(/C=C/c2cccc(C(=O)O)c2)c(Cl)c1 | 9 µM | 11 µM | 0.69 µM | 48% | 59.4% | 0.09 ×10⁻⁶ cm/s
4 | Cc1cc(OCc2c(-c3[nH]c(=O)ccc3Cl)noc2C(C)C)ccc1-c1ccc2c(C(=O)O)cn(C)c2c1 | – | 18 µM | 4.13 µM | 8% | 0% | –
5 | Cc1cc(OCc2c(-c3c(Cl)ccc(=O)n3C)noc2C(C)C)ccc1-c1ccc2c(C(=O)O)cn(C)c2c1 | 4 µM | 4 µM | 0.235 µM | 39% | 27% | –
6 | Cc1cc(OCc2c(-c3c(Cl)cncc3Cl)noc2C(C)C)ccc1-c1ccc2c(C(=O)O)cn(C)c2c1 | 0.9 µM | 3 µM | – | 71% | 38% | 0.19 ×10⁻⁶ cm/s
7 | CC(C)c1onc(-c2c(Cl)cccc2Cl)c1COc1ccc(/C=C/c2cccc(C(=O)O)c2)c(Cl)c1 | – | 2 µM | – | – | 100% | –
8 | COc1ccccc1-c1noc(C(C)C)c1COc1ccc(/C=C/c2cccc(C(=O)O)c2)c(Cl)c1 | 10 µM | 10 µM | 0.25 µM | 19.8% | 54.3% | –
9 | CC(C)c1onc(-c2ccc(S(C)(=O)=O)cc2Cl)c1COc1ccc(/C=C/c2cccc(C(=O)O)c2)c(Cl)c1 | > 10 µM | > 10 µM | 0.17 µM | 0% | 0% | –
10 | Cc1cc(OCc2c(-c3c(Cl)cn(C)c(=O)c3Cl)noc2C(C)C)ccc1-c1ccc2c(C(=O)O)cn(C)c2c1 | 12 µM | 11 µM | 2.75 µM | 15% | 9% | –
11 | COc1ccc(Cl)c(-c2noc(C(C)C)c2COc2ccc(-c3ccc4c(C(=O)O)cn(C)c4c3)c(C)c2)n1 | 2 µM | 2 µM | 0.31 µM | 12% | 23% | 0.7 ×10⁻⁶ cm/s
12 | Cc1cc(OCc2c(-c3cc[nH]c(=O)c3Cl)noc2C(C)C)ccc1-c1ccc2c(C(=O)O)cn(C)c2c1 | 5 µM | 7 µM | 1.1 µM | 63.3% | 58.5% | –
